# Laboratory results from US8263095B2, “Methods of use for peptides having activities of insulin like growth factor-1” (Caregen Co., Ltd., priority 2006, dated 2012).
# Bridge positions count the residues as written; N and C are the ends. Ends that are not written are not given here. * marks the point of attachment. FITC = O=C1OC2(c3ccc(O)cc3Oc3cc(O)ccc32)c2ccc(NC(=S)*)cc21; βAla = NCCC(=O)O
# Tested on: receptors on surface of 3T3 fibroblasts
# Assay: Binding of fluorescence-labeled peptide to receptors on fibroblasts
# Conditions: 1 mg/ml, 1 hr incubation, fluorescence and optical microscopy
# Experimental: 3T3 fibroblasts were cultured in 250 ml-flasks containing EMEM (Eagle's minimal essential media, Gibco, U.S.A.) supplemented with […] FBS (fetal bovine serum). After 48-hr culture, the supernatant of the medium was discarded and the remainder was washed once with PBS (phosphate buffered saline). FITC-b-Ala-CDLRRLEMYC prepared in Preparation Example 4 was dissolved in DMSO and PBS to a concentration of 1 mg/ml and incubated for 1 hr with cells cultured. After removing medium, cells were completely washed and their surface was observed under fluorescence and optical microscopes.
substance,measurement,value
FITC-b-Ala-Cys-Asp-Leu-Arg-Arg-Leu-Glu-Met-Tyr-Cys ({FITC-βAla}-CDLRRLEMYC; disulfide 1-10) [FITC-labeled peptide],binding of the FITC-labeled peptide to receptors on cell (FIG. 12),binds to receptors on surface of fibroblasts
